Publication PMC6753678, “Fueling Open Innovation for Malaria Transmission-Blocking Drugs: Hundreds of Molecules Targeting Early Parasite Mosquito Stages” (Frontiers in Microbiology, 2019)
Like-named read-outs stand apart in the source and are kept apart here.

Columns and labels:
HepG2 cells = assay: HepG2 cytotoxicity assay; conditions: for Pb ODA (this manuscript) HepG2 cytoxicity: HepG2 cytotoxicity listed with the Pb ODA data set (this manuscript); for IC50: read-out: HepG2 cytotoxicity assay IC50, dose response confirmation
Summary of the method: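 Here viability after a 48 h compound incubation (37°C, humidified 5% CO2) is measured by fluorescence and expressed as percent inhibition, with doxorubicin at 50 μM and DMSO as the bounding controls.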

[1] = test system: P. berghei ookinete development; conditions: for % inhibition, Replicate A / % inhibition, Replicate B: primary screen at 1 μM
[2] = test system: 3D7-strain P. falciparum asexual parasites; assay: P. falciparum asexual growth inhibition assay (Pf GIA); assay type: cell-based, Plasmodium falciparum; conditions: dose response confirmation; read-out: Pf asexual growth inhibition assays IC50
Summary of the method: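 0.25% parasitemia, 2% Hct, RPMI/HEPES/hypoxanthine/5% Albumax; compound dose response, 72 h, 37°C, 5% CO2, 5% O2, 90% N2. Freeze-thaw, then LDH assay, A650. % inhibition vs chloroquine (50 μM)/DMSO, mean of 3 independent runs.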

[3] = read-out: Pb ODA (this manuscript) IC50, P. berghei ookinete development assay, this manuscript
[4] = read-out: Pb Ookinete development assay IC50, dose response confirmation
[5] = HepG2 values of the three screens unified
[6] = read-out: Pb ODA IC50, this manuscript
[7] = unified HepG2 value across the three screens

| Compound | Pb ODA (this manuscript) HepG2 cytoxicity (HepG2 cells) | IC50 (HepG2 cells) | Is compound selective in assay? Pb ODA active? [1] | % inhibition, Replicate A [1] | % inhibition, Replicate B [1] | IC50 [1, 3] | IC50 [1, 4] | IC50 [2] | HepG2 cytoxicity (Pb ODA, this manuscript) (HepG2 cells) | Unified cytotox (HepG2 cells; [5]) | Is compound selective in assay? Pb ODA active? ([1]; 1: YES, 0: NO) | IC50 [1, 6] | Unified cytotox (HepG2 cells; [7]) | IC50 ([1]; read-out: Pb ODA IC50) | IC50 ([1]; read-out: Pb Ookinete development assay IC50) |
| --- | --- | --- | --- | --- | --- | --- | --- | --- | --- | --- | --- | --- | --- | --- | --- |
| Br.CC1(C)NC(N)=NC(=N)N1OCCSc1ccc(Cl)c(Cl)c1 [TCMDC-131704] | 0.001 µM | 1 nM | 0 (key: 1: YES; 0: NO) | 51.68% | 39.02% | 8290 nM | 8290 nM | < 0.2 nM |  |  |  |  |  |  |  |
| CCC(C)CN1CCN(c2ccc(NC(=O)c3cccs3)cc2)C(C)C1.O=C(O)C(F)(F)F (centres unmarked) [TCMDC-134996] | 60.26 µM | 60300 nM | 1 (key: 1: YES; 0: NO) | 97.72% | 83.44% |  | 1050 nM | 753 nM |  |  |  |  |  |  |  |
| Cc1cc2c3c(N)nc(N)nc3ccc2n1C(C)C [TCMDC-137864] |  | 33.1 nM |  | 66.13% | 75.37% |  | 2320 nM | 4 nM | 0.0331 µM | 0.0331 µM | 0 (0: NO) | 2320 nM |  |  |  |
| COc1cc(OC)cc(-c2nn(-c3ccc([N+](=O)[O-])cc3C#N)c(=S)n2Cc2ccco2)c1 [TCMDC-134715] |  | 100000 nM |  | 26.66% | 59.14% |  | 1600 nM | 744 nM |  |  | 1 (1: YES) | 1600 nM | 100.00 µM |  |  |
| CN1Cc2cc(NC(=O)/C=C/c3ccccc3Cl)ccc2C(C)(C)C1.Cl [TCMDC-139315] |  | 20400 nM |  | 114.62% | 130.13% |  | 563 nM | 679 nM |  |  | 1 (1: YES) | 560 nM | 20.42 µM |  |  |
| COc1cc(F)c2ncc(C#N)c(CCN3CCC(NCc4ccc5c(c4)OCCO5)CC3)c2c1.Cl [TCMDC-135367] |  | 38900 nM |  | 88.34% | 59.17% |  | 2170 nM | 640 nM |  |  | 1 (1: YES) | 2170 nM | 38.90 µM |  |  |
| Cc1[nH]c(C)c(-c2ccc(-c3ccc(Cl)cc3)cc2)c(=O)c1Cl [TCMDC-137416] | 57.54 µM | 57500 nM | 1 (key: 1: YES; 0: NO) | 59.25% | 97.22% | 2430 nM | 2430 nM | 378 nM |  |  |  |  |  |  |  |
| COc1ccc2nc3cc(Cl)ccc3c(NCCCO)c2c1 [TCMDC-124144] | 7.08 µM | 7080 nM | 0 (key: 1: YES; 0: NO) | 19.58% | 67.10% |  | 1300 nM | 210 nM |  |  |  |  |  |  |  |
| COc1ccc2ncc(Cl)c(NCC3(O)CCC(NCc4ccc5c(n4)NC(=O)CS5)CC3)c2n1.Cl (centres unmarked) [TCMDC-134671] |  | 12600 nM |  | 92.69% | 100.49% |  | 813 nM | 1210 nM | 12.59 µM | 12.59 µM | 1 (1: YES) | 810 nM |  |  |  |
| CCCC(C)n1ccc2c3c(N)nc(N)nc3ccc21 (centres unmarked) [TCMDC-137964] |  | 30 nM |  | 50.53% | 51.77% |  | 4290 nM | 35 nM | 0.03 µM | 0.03 µM | 0 (0: NO) | 4290 nM |  |  |  |
| COc1cc(Cn2ccc3c4c(N)nc(N)nc4ccc32)cc(OC)c1OC [TCMDC-137341] |  | 1.7 nM |  | 61.35% | 58.11% |  |  | < 0.3 nM | 0.0017 µM | 0.0017 µM |  |  |  | 560 nM | 556 nM |
| COc1cc(NC2=NS(=O)(=O)c3cc(Cl)ccc3N2C)cc(OC)c1OC.O=C(O)C(F)(F)F [TCMDC-134208] |  | 100000 nM |  | 117.05% | 98.94% |  | 1350 nM | 146 nM |  |  | 1 (1: YES) | 1350 nM | 100.00 µM |  |  |
| Br.CC1(C)NC(N)=NC(=N)N1OCCSc1ccccc1 [TCMDC-131670] | 0.001 µM | 1 nM | 0 (key: 1: YES; 0: NO) | 44.97% | 56.76% | 2860 nM | 2860 nM | < 0.2 nM |  |  |  |  |  |  |  |
| Br.CC1(C)N=C(N)N=C(N)N1OCCc1cccc2ccccc12 [TCMDC-131663] | 0.001 µM | 1 nM | 0 (key: 1: YES; 0: NO) | 57.64% | 56.80% | 2710 nM | 2710 nM | 24 nM |  |  |  |  |  |  |  |
| Br.COc1ccc(CCCON2C(=N)N=C(N)NC2(C)C)cc1 [TCMDC-131693] | 0.001 µM | 1 nM | 0 (key: 1: YES; 0: NO) | 23.91% | 55.92% | 5900 nM | 5900 nM | < 0.2 nM |  |  |  |  |  |  |  |
| CCOC(=O)C(=O)N1c2ccc(OCC)cc2-c2c(ssc2=S)C1(C)C [TCMDC-124090] |  | 100000 nM |  | 23.50% | 54.71% |  | 2010 nM | 89 nM |  |  | 1 (1: YES) | 2010 nM | 100.00 µM |  |  |
| COc1ccc2ncc(F)c(CCN3C4CCC3CC(NCc3ccc5c(c3)OCCO5)C4)c2n1.Cl (centres unmarked) [TCMDC-135638] | 39.81 µM | 39800 nM | 0 (key: 1: YES; 0: NO) | 30.43% | 54.56% | 4240 nM | 4240 nM | 995 nM |  |  |  |  |  |  |  |
| Cc1[nH]c(C)c(C2CCC(c3ccc(Cl)cc3)CC2)c(=O)c1Cl (centres unmarked) [TCMDC-137423] |  | 2240 nM |  | 93.67% | 102.07% |  | 75 nM | 44 nM |  |  | 1 (1: YES) | 75.5 nM | 2.24 µM |  |  |
| COc1ccc2nccc([C@@H](O)CN3CCC(NCCOc4ccc(F)cc4Cl)CC3)c2c1.O=C(O)C(=O)O [TCMDC-140660] |  | 32400 nM |  | 30.16% | 50.20% |  | 8290 nM | 173 nM | 32.36 µM | 32.36 µM | 0 (0: NO) | 8290 nM |  |  |  |
| CCCCN(C)CC#Cc1ccc2[nH]c(C)c(Cl)c(=O)c2c1 [TCMDC-136185] |  | 3090 nM |  | 106.94% | 101.22% |  | 207 nM | 49 nM |  |  | 1 (1: YES) | 210 nM | 3.09 µM |  |  |
| COc1ccc2nccc([C@@H](O)CN3CCC(NCc4cc5ccccc5nc4O)CC3)c2c1.Cl [TCMDC-140759] |  | 49000 nM |  | 50.79% | 52.50% |  | 2010 nM | 431 nM | 48.98 µM | 48.98 µM | 1 (1: YES) | 2010 nM |  |  |  |
| CC(C)N1CCN(CCCNc2c3ccccc3nc3ccccc23)CC1.Cl [TCMDC-137547] |  | 14400 nM |  | 29.07% | 62.42% |  | 3710 nM | 518 nM | 14.45 µM | 14.45 µM | 0 (0: NO) | 3710 nM |  |  |  |
| COc1cccc(CC(=O)N2CCC(n3c(C)nc4ccc(F)cc43)CC2)c1 [TCMDC-124792] |  | 100000 nM |  | 59.80% | 82.85% |  | 794 nM | 208 nM |  |  | 1 (1: YES) | 790 nM | 100.00 µM |  |  |
| COc1ccc2ncc(C)c(CCN3CCC(NCc4ccc5c(n4)NC(=O)CS5)CC3)c2c1.Cl [TCMDC-134648] |  | 34700 nM |  | 66.89% | 104.06% |  | 2550 nM | 872 nM | 34.67 µM | 34.67 µM | 1 (1: YES) | 2550 nM |  |  |  |
